# Data as given in ChEMBL document CHEMBL1201862, “PubChem BioAssay data set” (2004).
# The source made the active and inactive calls.
# Experiments:
# Procathepsin L = Procathepsin L (Homo sapiens, UniProt P07711); test: CTSL1 protease inhibition – biochemical, QFRET, 1536-well, counter-screen for M1/M17 aminopeptidase inhibitor project, dose response (AID 2214)
# Aspartyl aminopeptidase = target: T1, Aspartyl aminopeptidase (Plasmodium falciparum 3D7, UniProt Q8I2J3); test: Counterscreen for inhibitors of M1 and M17 aminopeptidases: QFRET-based biochemical high throughput dose response assay for inhibitors of the Plasmodium falciparum M18 Aspartyl Aminopeptidase (PFM18AAP). [Related PubChem assays: 1619 (Screening assay (M17LAP inhibitors).), 1445 (Screening assay (M1AAP inhibitors).)]
# T1 sequence (Q8I2J3 whole entry): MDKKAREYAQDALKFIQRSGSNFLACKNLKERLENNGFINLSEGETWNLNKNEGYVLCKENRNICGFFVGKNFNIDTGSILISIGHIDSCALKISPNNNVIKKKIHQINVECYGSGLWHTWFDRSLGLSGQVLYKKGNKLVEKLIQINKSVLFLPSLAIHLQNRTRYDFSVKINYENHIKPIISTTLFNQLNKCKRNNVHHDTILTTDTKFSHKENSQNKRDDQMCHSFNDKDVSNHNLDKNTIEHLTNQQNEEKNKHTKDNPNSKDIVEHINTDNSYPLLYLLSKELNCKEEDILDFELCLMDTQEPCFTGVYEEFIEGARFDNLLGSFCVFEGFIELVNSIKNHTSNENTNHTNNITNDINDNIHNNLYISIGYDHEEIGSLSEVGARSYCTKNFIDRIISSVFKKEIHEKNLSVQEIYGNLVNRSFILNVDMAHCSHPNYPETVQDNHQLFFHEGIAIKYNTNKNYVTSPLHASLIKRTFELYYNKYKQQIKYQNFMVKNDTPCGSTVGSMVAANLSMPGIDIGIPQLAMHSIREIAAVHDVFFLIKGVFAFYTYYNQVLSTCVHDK
# Leucine aminopeptidase = target: T2, Leucine aminopeptidase (Plasmodium falciparum 3D7, UniProt Q8IL11); test: P. falciparum M17LAP inhibitors, primary screen, biochemical, fluorogenic H-Leu-NHMec substrate, 1536-well (AID 1619); assay type: functional
# T2 sequence (Q8IL11 whole entry): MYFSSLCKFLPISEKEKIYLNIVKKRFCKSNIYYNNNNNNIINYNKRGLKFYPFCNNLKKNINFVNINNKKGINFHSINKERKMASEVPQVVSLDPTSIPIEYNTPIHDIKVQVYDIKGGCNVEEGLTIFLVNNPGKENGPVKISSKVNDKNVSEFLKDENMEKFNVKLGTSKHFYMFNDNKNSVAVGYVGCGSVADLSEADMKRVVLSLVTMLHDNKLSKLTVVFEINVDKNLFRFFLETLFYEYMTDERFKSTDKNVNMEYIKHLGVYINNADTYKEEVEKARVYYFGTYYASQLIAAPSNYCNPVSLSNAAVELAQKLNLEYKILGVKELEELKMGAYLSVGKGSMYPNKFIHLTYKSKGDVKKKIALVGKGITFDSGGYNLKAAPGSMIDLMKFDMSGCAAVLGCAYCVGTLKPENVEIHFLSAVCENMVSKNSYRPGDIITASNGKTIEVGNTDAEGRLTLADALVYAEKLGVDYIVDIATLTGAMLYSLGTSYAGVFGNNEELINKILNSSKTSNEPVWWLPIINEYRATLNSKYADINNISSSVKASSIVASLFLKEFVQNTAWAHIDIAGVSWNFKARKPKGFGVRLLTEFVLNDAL
# [1] = target: Multidrug resistance protein CDR2 (Candida albicans (strain SC5314 / ATCC MYA-2876) (Yeast), UniProt P78595); test: inhibition of Nile Red efflux via Candida CDR2 – S. cerevisiae AD1-8u, singleplex, Cherry Pick1 hits, dose response (AID 588604); assay type: functional
# [2] = target: Calcium/calmodulin-dependent protein kinase type II subunit beta (Homo sapiens, UniProt Q13554); assay type: functional
# Misshapen-like kinase 1 = Misshapen-like kinase 1 (Homo sapiens, UniProt Q8N4C8); assay type: functional;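 also: kinome panel screen with MINK as the panel member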
# [3] = target: Homeodomain-interacting protein kinase 2 (Homo sapiens, UniProt Q9H2X6); assay type: functional;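 also: measured within a kinome-wide kinase profiling panel, HIPK2 being one panel member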
# [4] = target: Glycogen synthase kinase-3 beta (Homo sapiens, UniProt P49841); assay type: functional;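 also: value comes from a broad kinome profiling panel, with GSK3B as the panel member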
# [5] = target: MAP/microtubule affinity-regulating kinase 3 (Homo sapiens, UniProt P27448); assay type: functional;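 also: MARK3 affinity measured as one member of a kinome panel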
# [6] = target: Tyrosine-protein kinase SYK (Homo sapiens, UniProt P43405); assay type: functional
# [7] = target: Serine/threonine-protein kinase PLK3 (Homo sapiens, UniProt Q9H4B4); assay type: functional
# [8] = target: Serine/threonine-protein kinase PLK1 (Homo sapiens, UniProt P53350); assay type: functional;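 also: PLK1 measured as one member of a kinome-wide profiling panel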
# [9] = target: Serine/threonine-protein kinase TAO1 (Homo sapiens, UniProt Q7L7X3); assay type: functional
# [10] = target: ALK tyrosine kinase receptor (Homo sapiens, UniProt Q9UM73); assay type: functional;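 also: ALK tested as one member of a kinase panel screen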
# [11] = target: Serine/threonine-protein kinase pim-1 (Homo sapiens, UniProt P11309); assay type: functional
# [12] = target: Tyrosine-protein kinase Fyn (Homo sapiens, UniProt P06241); assay type: functional
# Focal adhesion kinase 1 = Focal adhesion kinase 1 (Homo sapiens, UniProt Q05397); assay type: functional;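 also: measured as one member of a kinome panel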
# LIM domain kinase 1 = LIM domain kinase 1 (Homo sapiens, UniProt P53667); test: Navigating the Kinome. Panel member name: LIMK1; assay type: functional
# [13] = target: Tyrosine-protein kinase Lck (Homo sapiens, UniProt P06239); assay type: functional;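 also: lck was assayed as one member of a kinase panel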
# [14] = target: Tyrosine-protein kinase BTK (Homo sapiens, UniProt Q06187); assay type: functional
# [15] = target: Cyclin-dependent kinase 8 (Homo sapiens, UniProt P49336); test: Navigating the Kinome. Panel member name: CDK8; assay type: functional
# [16] = target: Mitogen-activated protein kinase 13 (Homo sapiens, UniProt O15264); assay type: functional
# [17] = target: Cyclin-dependent kinase 7 (Homo sapiens, UniProt P50613); assay type: functional;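 also: value comes from a kinome-wide kinase profiling panel in which CDK7 is one member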
# [18] = target: Mitogen-activated protein kinase 14 (Homo sapiens, UniProt Q16539); assay type: functional;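 also: part of a kinome-wide panel, MAPK14 entry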
# [19] = target: Casein kinase I isoform gamma-1 (Homo sapiens, UniProt Q9HCP0); assay type: functional;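 also: measured as the CSNK1G1 member of a kinome profiling panel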
# [20] = target: MAP kinase-activated protein kinase 3 (Homo sapiens, UniProt Q16644); assay type: functional;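 also: value comes from a kinome-wide profiling panel in which MAPKAPK3 is one of the panel members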
# [21] = target: Tyrosine-protein kinase Lyn (Homo sapiens, UniProt P07948); assay type: functional;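 also: lyn as one member of a kinase panel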
# [22] = target: RAC-alpha serine/threonine-protein kinase (Homo sapiens, UniProt P31749); assay type: functional;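 also: AKT1 affinity measured as one member of a kinome-wide kinase profiling panel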
# [23] = target: Mitogen-activated protein kinase 9 (Homo sapiens, UniProt P45984); assay type: functional;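 also: value from a kinome panel profiling assay, MAPK9 panel entry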
# [24] = target: Serine/threonine-protein kinase D3 (Homo sapiens, UniProt O94806); assay type: functional;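 also: determined within a kinase panel screen, with PRKCN as the panel member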
# [25] = target: 5'-AMP-activated protein kinase catalytic subunit alpha-1 (Homo sapiens, UniProt Q13131); assay type: functional
# [26] = target: Dual specificity tyrosine-phosphorylation-regulated kinase 3 (Homo sapiens, UniProt O43781); assay type: functional;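 also: measured as one member of a broad kinase panel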
# [27] = target: Calcium/calmodulin-dependent protein kinase type II subunit delta (Homo sapiens, UniProt Q13557); assay type: functional
# [28] = target: Cyclin-dependent kinase 5 (Homo sapiens, UniProt Q00535); assay type: functional;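 also: CDK5 measured as one member of a kinase profiling panel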
# [29] = target: Mitogen-activated protein kinase kinase kinase kinase 5 (Homo sapiens, UniProt Q9Y4K4); assay type: functional;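 also: measured as one member of a kinome-spanning kinase panel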
# [30] = target: Glycogen synthase kinase-3 alpha (Homo sapiens, UniProt P49840); assay type: functional;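 also: GSK3A result taken from a broad kinome-wide kinase panel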
# [31] = target: RAC-gamma serine/threonine-protein kinase (Homo sapiens, UniProt Q9Y243); assay type: functional
# [32] = target: Lymphokine-activated killer T-cell-originated protein kinase (Homo sapiens, UniProt Q96KB5); assay type: functional;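 also: value comes from a kinase panel screen in which TOPK was one of the panel members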
# Wee1-like protein kinase = Wee1-like protein kinase (Homo sapiens, UniProt P30291); test: Navigating the Kinome. Panel member name: WEE1; assay type: functional
# [33] = target: Testis-specific serine/threonine-protein kinase 2 (Homo sapiens, UniProt Q96PF2); assay type: functional;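 also: part of the Navigating the Kinome panel, target entry STK22B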
# [34] = target: Serine/threonine-protein kinase MRCK alpha (Homo sapiens, UniProt Q5VT25); assay type: functional
# [35] = target: Cell division cycle 7-related protein kinase (Homo sapiens, UniProt O00311); assay type: functional;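 also: value obtained from a kinome-wide kinase panel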
# [36] = target: Cyclin-dependent kinase 2 (Homo sapiens, UniProt P24941); assay type: functional;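 also: CDK2 measured as one member of a broad kinome profiling panel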
# [37] = target: Cyclin-dependent kinase 9 (Homo sapiens, UniProt P50750); assay type: functional;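 also: value from the CDK9 entry of a kinome-spanning kinase panel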
# [38] = target: Receptor tyrosine-protein kinase erbB-4 (Homo sapiens, UniProt Q15303); assay type: functional;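 also: ERBB4 member of a kinome-wide kinase profiling panel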
# [39] = target: Tyrosine-protein kinase Blk (Homo sapiens, UniProt P51451); assay type: functional;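 also: obtained as one member of a kinome-wide kinase assay panel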
# [40] = target: Dual specificity tyrosine-phosphorylation-regulated kinase 4 (Homo sapiens, UniProt Q9NR20); assay type: functional
# [41] = target: Cyclin-dependent kinase 1 (Homo sapiens, UniProt P06493); assay type: functional;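 also: Kinome-wide panel profiling, with the target listed as panel member CDC2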
# [42] = target: cGMP-dependent protein kinase 1 (Homo sapiens, UniProt Q13976); assay type: functional;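 also: value from a kinome panel screen with PRKG1 as the panel member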
# [43] = target: Casein kinase II subunit alpha (Homo sapiens, UniProt P68400); assay type: functional
# [44] = target: Macrophage-stimulating protein receptor (Homo sapiens, UniProt Q04912); test: Navigating the Kinome. Panel member name: MST1R; assay type: functional
# [45] = target: Casein kinase I isoform delta (Homo sapiens, UniProt P48730); assay type: functional;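 also: measured as one member (CSNK1D) of a kinome panel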
# [46] = target: Vascular endothelial growth factor receptor 3 (Homo sapiens, UniProt P35916); assay type: functional;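 also: value from a kinome-wide profiling panel, with FLT4 as the panel member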
# [47] = target: Protein kinase C gamma type (Homo sapiens, UniProt P05129); assay type: functional
# [48] = target: Serine/threonine-protein kinase pim-2 (Homo sapiens, UniProt Q9P1W9); assay type: functional;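 also: value comes from a broad kinase panel profiling study in which PIM2 was one of the panel members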
# [49] = target: Mitogen-activated protein kinase kinase kinase 20 (Homo sapiens, UniProt Q9NYL2); assay type: functional
# [50] = target: cAMP-dependent protein kinase catalytic subunit PRKX (Homo sapiens, UniProt P51817); assay type: functional
# [51] = target: Protein kinase C iota type (Homo sapiens, UniProt P41743); assay type: functional;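 also: measured within a kinome-wide kinase panel, PRKCI as panel member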
# Sequence of Protein kinase C iota type (P41743 whole entry): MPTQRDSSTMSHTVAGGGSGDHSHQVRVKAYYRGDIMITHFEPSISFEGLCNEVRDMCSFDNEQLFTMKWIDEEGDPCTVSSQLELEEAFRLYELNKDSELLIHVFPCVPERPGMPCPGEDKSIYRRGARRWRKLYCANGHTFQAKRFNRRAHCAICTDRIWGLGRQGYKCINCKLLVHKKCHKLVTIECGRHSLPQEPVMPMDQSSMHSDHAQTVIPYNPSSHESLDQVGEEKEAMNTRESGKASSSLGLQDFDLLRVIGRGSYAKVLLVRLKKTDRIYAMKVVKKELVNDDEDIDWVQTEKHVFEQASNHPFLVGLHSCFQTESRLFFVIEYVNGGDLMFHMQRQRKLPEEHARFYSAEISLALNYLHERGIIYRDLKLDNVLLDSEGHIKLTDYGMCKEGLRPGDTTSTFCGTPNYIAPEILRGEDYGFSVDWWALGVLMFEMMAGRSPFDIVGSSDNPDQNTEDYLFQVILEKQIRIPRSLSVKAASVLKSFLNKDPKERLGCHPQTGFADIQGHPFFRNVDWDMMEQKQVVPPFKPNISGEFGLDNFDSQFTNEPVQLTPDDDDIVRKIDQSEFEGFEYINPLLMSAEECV
# Sequence of Cyclin-dependent kinase 8 (P49336 whole entry): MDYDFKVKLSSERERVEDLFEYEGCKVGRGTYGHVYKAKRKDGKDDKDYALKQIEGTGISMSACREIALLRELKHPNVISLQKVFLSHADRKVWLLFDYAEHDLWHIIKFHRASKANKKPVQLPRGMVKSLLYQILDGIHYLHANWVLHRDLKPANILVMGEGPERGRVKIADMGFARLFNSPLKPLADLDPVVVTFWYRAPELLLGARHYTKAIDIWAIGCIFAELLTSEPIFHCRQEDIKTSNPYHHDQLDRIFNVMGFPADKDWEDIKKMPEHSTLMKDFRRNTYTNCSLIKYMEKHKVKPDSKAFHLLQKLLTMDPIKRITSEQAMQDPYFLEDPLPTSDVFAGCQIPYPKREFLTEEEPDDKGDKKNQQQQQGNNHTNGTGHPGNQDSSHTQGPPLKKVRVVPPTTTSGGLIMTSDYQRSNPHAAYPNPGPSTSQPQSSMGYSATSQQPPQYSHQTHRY
# Sequence of Misshapen-like kinase 1 (Q8N4C8 whole entry): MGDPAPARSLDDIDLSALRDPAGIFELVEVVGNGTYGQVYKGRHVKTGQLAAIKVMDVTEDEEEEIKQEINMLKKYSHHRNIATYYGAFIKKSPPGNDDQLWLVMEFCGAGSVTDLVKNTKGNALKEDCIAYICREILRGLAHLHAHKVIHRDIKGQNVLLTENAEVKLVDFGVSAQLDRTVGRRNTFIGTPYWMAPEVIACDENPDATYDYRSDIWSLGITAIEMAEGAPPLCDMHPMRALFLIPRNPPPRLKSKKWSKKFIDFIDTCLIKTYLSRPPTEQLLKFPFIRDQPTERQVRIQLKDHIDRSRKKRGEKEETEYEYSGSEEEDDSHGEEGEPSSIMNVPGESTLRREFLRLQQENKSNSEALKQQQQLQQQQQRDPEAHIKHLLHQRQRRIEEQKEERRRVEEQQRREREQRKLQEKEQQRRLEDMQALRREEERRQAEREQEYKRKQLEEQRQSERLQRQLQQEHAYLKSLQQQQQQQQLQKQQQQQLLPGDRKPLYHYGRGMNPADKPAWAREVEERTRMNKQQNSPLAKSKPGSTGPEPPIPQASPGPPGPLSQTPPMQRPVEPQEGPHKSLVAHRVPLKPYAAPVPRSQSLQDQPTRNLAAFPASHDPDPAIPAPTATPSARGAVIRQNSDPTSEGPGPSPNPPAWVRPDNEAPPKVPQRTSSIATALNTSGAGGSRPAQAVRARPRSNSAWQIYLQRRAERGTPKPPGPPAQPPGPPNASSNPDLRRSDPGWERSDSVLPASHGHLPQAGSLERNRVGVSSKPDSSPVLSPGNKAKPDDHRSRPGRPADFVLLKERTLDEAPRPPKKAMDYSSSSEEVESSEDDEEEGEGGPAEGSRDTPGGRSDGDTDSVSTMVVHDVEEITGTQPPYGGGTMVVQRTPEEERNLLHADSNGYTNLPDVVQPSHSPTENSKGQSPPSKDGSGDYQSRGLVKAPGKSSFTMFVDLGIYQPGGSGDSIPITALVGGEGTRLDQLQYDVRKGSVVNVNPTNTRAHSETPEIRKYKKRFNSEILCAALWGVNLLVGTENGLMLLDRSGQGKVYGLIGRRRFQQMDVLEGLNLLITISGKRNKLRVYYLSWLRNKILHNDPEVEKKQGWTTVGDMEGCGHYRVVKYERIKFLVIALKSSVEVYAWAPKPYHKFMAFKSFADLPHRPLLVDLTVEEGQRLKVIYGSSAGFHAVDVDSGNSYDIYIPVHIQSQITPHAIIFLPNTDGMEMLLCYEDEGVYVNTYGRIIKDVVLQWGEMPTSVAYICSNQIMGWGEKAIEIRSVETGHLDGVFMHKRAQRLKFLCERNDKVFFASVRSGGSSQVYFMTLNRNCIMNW
# Sequence of Serine/threonine-protein kinase pim-1 (P11309 whole entry): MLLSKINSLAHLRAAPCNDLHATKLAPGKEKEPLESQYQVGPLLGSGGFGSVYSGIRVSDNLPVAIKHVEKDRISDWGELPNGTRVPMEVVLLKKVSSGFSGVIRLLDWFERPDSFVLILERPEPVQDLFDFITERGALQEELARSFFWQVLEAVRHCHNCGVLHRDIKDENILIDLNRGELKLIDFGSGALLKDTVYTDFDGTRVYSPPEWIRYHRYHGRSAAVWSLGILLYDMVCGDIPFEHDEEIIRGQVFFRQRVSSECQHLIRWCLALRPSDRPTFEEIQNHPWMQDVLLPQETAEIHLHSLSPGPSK
# Sequence of 5'-AMP-activated protein kinase catalytic subunit alpha-1 (Q13131 whole entry): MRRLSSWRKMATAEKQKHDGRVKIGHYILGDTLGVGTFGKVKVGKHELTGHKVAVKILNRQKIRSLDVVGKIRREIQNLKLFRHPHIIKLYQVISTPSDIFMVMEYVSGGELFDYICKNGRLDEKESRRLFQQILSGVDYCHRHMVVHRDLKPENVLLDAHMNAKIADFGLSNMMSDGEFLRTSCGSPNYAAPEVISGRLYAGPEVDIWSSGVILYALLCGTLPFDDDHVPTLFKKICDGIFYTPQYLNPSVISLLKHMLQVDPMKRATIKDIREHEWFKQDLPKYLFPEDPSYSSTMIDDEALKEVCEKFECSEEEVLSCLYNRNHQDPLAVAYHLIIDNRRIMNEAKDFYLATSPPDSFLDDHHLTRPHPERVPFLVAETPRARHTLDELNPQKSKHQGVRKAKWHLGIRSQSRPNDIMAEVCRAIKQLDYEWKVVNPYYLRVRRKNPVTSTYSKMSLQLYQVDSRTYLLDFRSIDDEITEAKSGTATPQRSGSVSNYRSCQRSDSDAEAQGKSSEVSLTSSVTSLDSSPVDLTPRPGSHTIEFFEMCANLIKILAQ
# Sequence of ALK tyrosine kinase receptor (Q9UM73 whole entry): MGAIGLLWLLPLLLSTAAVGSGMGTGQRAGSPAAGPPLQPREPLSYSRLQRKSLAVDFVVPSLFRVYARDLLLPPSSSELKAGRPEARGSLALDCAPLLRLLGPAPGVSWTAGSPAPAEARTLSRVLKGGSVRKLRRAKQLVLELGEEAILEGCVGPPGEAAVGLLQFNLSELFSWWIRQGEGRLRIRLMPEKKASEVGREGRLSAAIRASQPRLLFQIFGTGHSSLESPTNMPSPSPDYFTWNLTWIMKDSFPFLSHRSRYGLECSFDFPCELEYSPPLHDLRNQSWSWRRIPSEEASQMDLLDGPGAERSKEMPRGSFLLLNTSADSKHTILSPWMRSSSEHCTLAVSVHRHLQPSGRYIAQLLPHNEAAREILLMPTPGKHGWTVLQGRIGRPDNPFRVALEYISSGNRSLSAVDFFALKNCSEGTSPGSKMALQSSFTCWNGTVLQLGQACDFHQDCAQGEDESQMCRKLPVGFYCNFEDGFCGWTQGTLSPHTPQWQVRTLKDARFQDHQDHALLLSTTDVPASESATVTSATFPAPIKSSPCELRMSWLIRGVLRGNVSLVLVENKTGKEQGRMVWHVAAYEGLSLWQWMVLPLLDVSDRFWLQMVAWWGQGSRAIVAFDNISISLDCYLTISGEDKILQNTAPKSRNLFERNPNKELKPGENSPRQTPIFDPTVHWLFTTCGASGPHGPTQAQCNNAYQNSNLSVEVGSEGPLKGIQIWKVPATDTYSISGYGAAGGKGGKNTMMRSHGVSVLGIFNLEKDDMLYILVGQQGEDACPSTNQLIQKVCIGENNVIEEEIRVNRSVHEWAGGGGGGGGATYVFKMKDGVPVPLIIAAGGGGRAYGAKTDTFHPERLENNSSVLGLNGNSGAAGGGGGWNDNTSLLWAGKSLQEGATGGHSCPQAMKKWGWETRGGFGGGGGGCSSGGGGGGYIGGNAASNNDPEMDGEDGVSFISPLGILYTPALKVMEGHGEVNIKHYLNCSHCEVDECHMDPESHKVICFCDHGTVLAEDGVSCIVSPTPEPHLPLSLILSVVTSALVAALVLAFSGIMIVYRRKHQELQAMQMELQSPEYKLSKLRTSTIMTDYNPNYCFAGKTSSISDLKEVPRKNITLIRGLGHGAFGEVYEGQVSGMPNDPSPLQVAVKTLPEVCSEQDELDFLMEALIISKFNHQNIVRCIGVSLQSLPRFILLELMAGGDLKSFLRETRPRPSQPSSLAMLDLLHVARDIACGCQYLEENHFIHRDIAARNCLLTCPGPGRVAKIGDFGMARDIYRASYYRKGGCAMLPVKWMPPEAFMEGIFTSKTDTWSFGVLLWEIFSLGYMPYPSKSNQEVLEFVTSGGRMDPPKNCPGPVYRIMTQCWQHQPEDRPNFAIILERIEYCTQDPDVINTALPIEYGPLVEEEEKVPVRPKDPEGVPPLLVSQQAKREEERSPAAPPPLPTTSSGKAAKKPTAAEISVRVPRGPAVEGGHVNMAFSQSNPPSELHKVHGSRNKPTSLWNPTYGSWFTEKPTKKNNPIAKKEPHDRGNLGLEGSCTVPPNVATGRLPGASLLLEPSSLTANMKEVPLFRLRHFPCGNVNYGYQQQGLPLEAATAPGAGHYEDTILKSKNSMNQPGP
smiles,measurement,setting,value
Cc1cc(C(=O)COC(=O)c2ccc[nH]c2=O)c(C)n1-c1ccc(F)cc1,IC50,Procathepsin L,> 59.6 µM (not active)
same,IC50,Aspartyl aminopeptidase,> 73.5 µM (not active)
same,IC50,Leucine aminopeptidase,1.98 µM (active)
same,EC50,[1],6.22 µM (active)
Cc1ccc(Nc2c(C(=O)O)n(CCCOc3cccc4ccccc34)c3cccc(-c4ccccc4C)c23)cc1,Ki,[2],6.31 µM (active)
same,Ki,Misshapen-like kinase 1,6.31 µM (active)
same,Ki,[3],3.16 µM (active)
same,Ki,[4],3.98 µM (active)
same,Ki,[5],3.98 µM (active)
same,Ki,[6],1.26 µM (active)
same,Ki,[7],3.16 µM (active)
same,Ki,[8],2.51 µM (active)
CC(C)(C)c1cc(NC(=O)C(=O)c2cccc3ccccc23)n(-c2ccc(OCC(=O)NCCO)cc2)n1,Ki,[9],> 6.31 µM (inactive)
same,Ki,[10],> 6.31 µM (inactive)
same,Ki,[11],> 6.31 µM (inactive)
same,Ki,[12],> 6.31 µM (inactive)
same,Ki,Focal adhesion kinase 1,> 6.31 µM (inactive)
same,Ki,LIM domain kinase 1,0.501 µM (active)
same,Ki,[13],> 6.31 µM (inactive)
same,Ki,[14],> 6.31 µM (inactive)
same,Ki,[15],1.58 µM (active)
COc1cc(N2CCC(N3CCN(C)CC3)CC2)ccc1Nc1ncc(Cl)c(Nc2ccccc2S(=O)(=O)C(C)C)n1 [TAE-684],Ki,[16],> 7.94 µM (inactive)
same,Ki,[17],0.0794 µM (active)
same,Ki,[18],> 3.98 µM (inactive)
same,Ki,[19],> 6.31 µM (inactive)
same,Ki,[20],> 10 µM (inactive)
same,Ki,[21],0.0794 µM (active)
same,Ki,[22],> 7.94 µM (inactive)
same,Ki,[23],0.398 µM (active)
same,Ki,[24],0.0316 µM (active)
same,Ki,Misshapen-like kinase 1,1 µM (active)
same,Ki,[25],0.01 µM (active)
same,Ki,[26],> 6.31 µM (inactive)
same,Ki,[27],0.00398 µM (active)
same,Ki,[28],0.0794 µM (active)
same,Ki,[29],0.0794 µM (active)
same,Ki,[11],> 7.94 µM (inactive)
same,Ki,[30],> 3.16 µM (inactive)
same,Ki,[31],> 10 µM (inactive)
same,Ki,[32],> 10 µM (inactive)
same,Ki,Wee1-like protein kinase,> 0.251 µM (inactive)
same,Ki,[33],0.01 µM (active)
same,Ki,[34],3.98 µM (active)
same,Ki,[35],> 1 µM (inactive)
same,pKi,[36],6.9
same,Ki,[37],> 1.58 µM (inactive)
same,Ki,[38],0.02 µM (active)
same,Ki,[39],0.0631 µM (active)
same,Ki,[40],> 7.94 µM (inactive)
same,Ki,[41],0.316 µM (active)
same,Ki,[42],1.58 µM (active)
same,Ki,[43],> 2.51 µM (inactive)
same,Ki,[44],0.126 µM (active)
same,Ki,[45],> 7.94 µM (inactive)
same,Ki,[46],0.00794 µM (active)
same,Ki,[47],> 1 µM (inactive)
same,Ki,[48],> 1.58 µM (inactive)
same,Ki,[49],> 7.94 µM (inactive)
same,Ki,[50],> 1 µM (inactive)
same,Ki,[15],> 3.98 µM (inactive)
same,Ki,[51],> 5.01 µM (inactive)
